The subject of one assay is A431. The note with it: for pIC50: 96 h; for IC50: read-out: Inhibition of H^3 Thymidine uptake (IC50 in nM), A431 cells, 96 hours incubation.
Another assay deals with LS174T. The note with it: for pIC50: 96 h; for IC50: read-out: Inhibition of H^3 Thymidine uptake (IC50 in nM), LS174T cells, 96 hours incubation.
Another assay relates to OVCAR-3. As to conditions: for pIC50: 96 h; for IC50: read-out: Inhibition of H^3 Thymidine uptake (IC50 in nM), OVCAR-3 cells, 96 hours incubation.
The next assay relates to SKOV-3. The note with it: for pIC50: 96 h; for IC50: read-out: Inhibition of H^3 Thymidine uptake (IC50 in nM), SKOV-3 cells, 96 hours incubation.
The test system of a further assay is Lncap. As to conditions: for pIC50: 96 h; for IC50: read-out: Inhibition of H^3 Thymidine uptake (IC50 in nM), Lncap cells, 96 hours incubation.
The next assay has as its system SK-N-SH. As to conditions: for pIC50: 96 h; for IC50: read-out: Inhibition of H^3 Thymidine uptake (IC50 in nM), SK-N-SH cells, 96 hours incubation.
The next assay has as its system SKMEL-2. As to conditions: for pIC50: 96 h; for IC50: read-out: Inhibition of H^3 Thymidine uptake (IC50 in nM), SKMEL-2 cells, 96 hours incubation.
A further assay deals with D341. The note with it: for pIC50: 96 h; for IC50: read-out: Inhibition of H^3 Thymidine uptake (IC50 in nM), D341 cells, 96 hours incubation.
A further assay has as its system MCF-7. The note with it: for pIC50: 96 h; for IC50: read-out: Inhibition of H^3 Thymidine uptake (IC50 in nM), MCF-7 cells, 96 hours incubation.

pIC50: −log10 of the molar value. Like-named read-outs stand apart in the source and are kept apart here.

Protocol for A431: (§1) Quantification of cell proliferation and cell viability was determined by measuring the amount of radioactive [^3H-methyl]-thymidine incorporated into DNA.
(§2) Cell culture: For each cell line, culture was carried according to the ATCC Product Information Sheet provided. Cell lines were always freshly thawed prior to each experiment. For all experiments exponentially growing cells were harvested and centrifuged at 1100 rpm, the spent medium was aspirated and cell pellets were resuspended in fresh complete medium. Viable cells were enumerated by trypan blue exclusion using a hemacytometer.
(§3) Cells were then seeded in 96 well tissue culture plates in a total volume of 100 μL/well. A preliminary experiment should be performed to determine the most appropriate cell density for each individual cell line. Cells were allowed to attach and acclimate overnight.
(§4) Addition of test compounds: Each test compound was dissolved in DMSO at a final concentration of 2 mM. Each stock compound was then diluted in complete medium (1:100) to obtain a 20 μM working solution. The working solution was used for further serial dilutions to obtain concentrations of 200 nM, 20 nM, 2 nM, 0.2 nM and 0.02 nM. 100 μL of each dilution was added to the 100 μL cell cultures (3 replicates),. to give final test concentrations of 100 nM, 10 nM, 1 nM, 0.1 nM and 0.01 nM. Using this system of dilutions, the maximum concentration of DMSO to which the cells were exposed was 0.01% v/v. Therefore, 0.01% DMSO was added to control cells to which no test compounds was added. On each plate two positive controls were included: Adriamycin Hydrochloride and Rapamycin. For each positive control 3 concentrations were chosen in a range that achieved an LC50, this range is cell line specific and must be predetermined in a pilot experiment. Plates were incubated for 96 hours prior to harvesting. [^3H-methyl]-thymidine incorporation: After 80 hours incubation, 10 μL (0.5 μCi) of [^3H-methyl]-thymidine diluted in 1× HBSS was added and plates were incubated overnight.
(§5) Growth medium was removed from each well and 100 uL of Trypsin-EDTA was added. The plate was incubated at 37° C. until cells were trypsinized (check under microscope). The detached cells were harvested using a semiautomatic cell harvester. Filters were dried prior to addition to scintillation vials. two mL of scintillation fluid was automatically dispensed into each vial and counting was effected on program 1 (^3H, 1 min, DPM).
(§6) The average and standard error from the DPM counts of replicate samples were calculated.
Protocol for D341: as §1, §2, §3, §4, §5, §6
Protocol for LS174T: as §1, §2, §3, §4, §5, §6
Protocol for Lncap: as §1, §2, §3, §4, §5, §6
Protocol for MCF-7: as §1, §2, §3, §4, §5, §6
Protocol for OVCAR-3: as §1, §2, §3, §4, §5, §6
Protocol for SK-N-SH: as §1, §2, §3, §4, §5, §6
Protocol for SKMEL-2: as §1, §2, §3, §4, §5, §6
Protocol for SKOV-3: as §1, §2, §3, §4, §5, §6

With `CC[C@H](C)[C@H](NC(=O)[C@H](CC(C)C)NC(=O)[C@H](C)NC(=O)[C@H](Cc1cn(C(c2ccccc2)(c2ccccc2)c2ccccc2)cn1)NC(=O)O[C@@H]1CC[C@@H](C[C@@H](C)[C@@H]2CC(=O)[C@H](C)/C=C(\C)[C@@H](O)[C@@H](OC)C(=O)[C@H](C)C[C@H](C)/C=C/C=C/C=C(\C)[C@@H](OC)C[C@@H]3CC[C@@H](C)[C@@](O)(O3)C(=O)C(=O)N3CCCC[C@H]3C(=O)O2)C[C@H]1OC)C(=O)N[C@@H](CO)Cc1ccccc1` [Compound 7h], the pIC50 (usually −log10 of the IC50, conventionally taken in molar units) in the assay on A431 was 5.62; in the assay on LS174T it was 6.11; in the assay on OVCAR-3 it was 6.43; in the assay on SKOV-3 it was 6.81; in the assay on Lncap, 6.43; with SK-N-SH, 6.65. The pIC50 in the assay with SKMEL-2 is 6.38; in the assay with D341 it was 6.39; in the assay with MCF-7, 7.07.
With `CC[C@H](C)[C@H](NC(=O)O[C@@H]1CC[C@@H](C[C@@H](C)[C@@H]2CC(=O)[C@H](C)/C=C(\C)[C@@H](O)[C@@H](OC)C(=O)[C@H](C)C[C@H](C)/C=C/C=C/C=C(\C)[C@@H](OC)C[C@@H]3CC[C@@H](C)[C@@](O)(O3)C(=O)C(=O)N3CCCC[C@H]3C(=O)O2)C[C@H]1OC)C(=O)N[C@H](CO)Cc1ccccc1` [Compound 7b, Rapamycin-42-O-ester-(NH-L-Ile-S-Phe-CH2OH)], the negative logarithm of the IC50 (pIC50) with A431 is 5.74; with LS174T, 5.83; with OVCAR-3, 6.37; in the assay with SKOV-3, 6.87; with Lncap, 6.51; with SK-N-SH it was 6.84. Further, the values for the negative-log IC50 (pIC50) in the assay on SKMEL-2, in the assay with D341 and with MCF-7 were 6.49, 6.74 and 7.27, respectively.
For the compound `CO[C@H]1C[C@@H]2CC[C@@H](C)[C@@](O)(O2)C(=O)C(=O)N2CCCC[C@H]2C(=O)O[C@H]([C@H](C)C[C@@H]2CC[C@@H](OC(=O)N[C@@H](CO)[C@H](C)O)[C@H](OC)C2)CC(=O)[C@H](C)/C=C(\C)[C@@H](O)[C@@H](OC)C(=O)[C@H](C)C[C@H](C)/C=C/C=C/C=C/1C` [Compound 7q, Rapamycin-42-O-ester-(2S,3S)-2-amino-1,3-butanediol], the half-inhibitory concentration (IC50) (usually the concentration that gives 50% inhibition) came to 313 nM in the assay on A431; 1630 nM with LS174T; 56.5 nM in the assay with OVCAR-3; 6.35 nM in the assay with SKOV-3; 17.4 nM in the assay with Lncap; 5.25 nM in the assay with SK-N-SH. Besides, the IC50 in the assay with SKMEL-2 was 9.15 nM; in the assay with D341, 25.2 nM; in the assay with MCF-7 it was 1.29 nM.
As to `CO[C@H]1C[C@@H]2CC[C@@H](C)[C@@](O)(O2)C(=O)C(=O)N2CCCC[C@H]2C(=O)O[C@H]([C@H](C)C[C@@H]2CC[C@@H](OC(=O)NCC(O)CO)[C@H](OC)C2)CC(=O)[C@H](C)/C=C(\C)[C@@H](O)[C@@H](OC)C(=O)[C@H](C)C[C@H](C)/C=C/C=C/C=C/1C` (stereo partly drawn) [Compound 7n, Rapamycin-42-O-ester-3-amino-1,2-propanediol], the IC50 was 314 nM with A431; 55100 nM in the assay with LS174T; 71.9 nM with OVCAR-3; 7.96 nM with SKOV-3; 42.7 nM in the assay with Lncap; 7.27 nM with SK-N-SH. The values for the 50% inhibitory concentration (IC50) in the assay with SKMEL-2, in the assay with D341 and with MCF-7 were 11.7 nM, 14.7 nM and 2.53 nM, respectively.
Turning to `CO[C@H]1C[C@@H]2CC[C@@H](C)[C@@](O)(O2)C(=O)C(=O)N2CCCC[C@H]2C(=O)O[C@H]([C@H](C)C[C@@H]2CC[C@@H](OC(=O)NC(C)(CO)CO)[C@H](OC)C2)CC(=O)[C@H](C)/C=C(\C)[C@@H](O)[C@@H](OC)C(=O)[C@H](C)C[C@H](C)/C=C/C=C/C=C/1C` [Compound 7p, Rapamycin-42-O-ester-2-amino-2-methyl-1,3-propanediol], the IC50 with A431 turned out to be 254 nM; in the assay with LS174T it was 2310 nM; in the assay with OVCAR-3, 79.3 nM; in the assay on SKOV-3 it was 8.8 nM; with Lncap it was 7.12 nM; in the assay with SK-N-SH, 7.19 nM. For the same compound, the results for the IC50 in the assay with SKMEL-2, in the assay with D341 and in the assay with MCF-7 were 17.7 nM, 10.2 nM and 1.17 nM, respectively.
As to `COC1CC2CCC(C)C(O)(O2)C(=O)C(=O)N2CCCCC2C(=O)OC(C(C)CC2CCC(OC(=O)NC(CO)CC(C)C)C(OC)C2)CC(=O)C(C)C=C(C)C(O)C(OC)C(=O)C(C)CC(C)C=CC=CC=C1C` [Compound 7t, Rapamycin-42-O-ester-(S)-(+)-2-amino-4-methyl pentanol], the half-maximal inhibitory concentration (IC50) with A431 turned out to be 278 nM; in the assay with LS174T it was 24000 nM; with OVCAR-3, 367 nM; in the assay with SKOV-3, 64.1 nM; with Lncap, 202 nM; with SK-N-SH, 99.3 nM. In addition, the IC50 with SKMEL-2 was 73.2 nM; in the assay on D341 it was 61.2 nM; in the assay with MCF-7, 53.3 nM.
Regarding `CC[C@H](C)[C@H](NC(=O)[C@H](CC(C)C)NC(=O)O[C@@H]1CC[C@@H](C[C@@H](C)[C@@H]2CC(=O)[C@H](C)/C=C(\C)[C@@H](O)[C@@H](OC)C(=O)[C@H](C)C[C@H](C)/C=C/C=C/C=C(\C)[C@@H](OC)C[C@@H]3CC[C@@H](C)[C@@](O)(O3)C(=O)C(=O)N3CCCC[C@H]3C(=O)O2)C[C@H]1OC)C(=O)N[C@@H](CO)Cc1ccccc1` [Compound 7c, Rapamycin-42-O-ester-(NH-L-Leu-L-Ile-D-Phe-CH2OH)], the pIC50 is 6.54 in the assay on A431; 5.77 in the assay with LS174T; 6.58 in the assay with OVCAR-3; 7.14 in the assay on SKOV-3; 6.67 in the assay on Lncap; 6.96 in the assay on SK-N-SH. Moreover, the pIC50 in the assay with SKMEL-2 was 7.06; with D341, 6.94; in the assay on MCF-7, 7.49.
For “Rapamycin-42-O-ester-(R) (+)-2-amino-3-phenyl-1-propanol [Compound 7k]”, the concentration for half-maximal inhibition (IC50) with A431 came out at 550 nM; in the assay with LS174T, 1380 nM; in the assay with OVCAR-3 it was 296 nM; in the assay on SKOV-3 it was 66 nM; with Lncap, 146 nM; in the assay on SK-N-SH, 71.3 nM. Moreover, the IC50 with SKMEL-2 is 109 nM; in the assay on D341 it was 259 nM; in the assay on MCF-7 it was 15.9 nM.
For the compound `CO[C@H]1C[C@@H]2CC[C@@H](C)[C@@](O)(O2)C(=O)C(=O)N2CCCC[C@H]2C(=O)O[C@H]([C@H](C)C[C@@H]2CC[C@@H](OC(=O)NC(CO)CO)[C@H](OC)C2)CC(=O)[C@H](C)/C=C(\C)[C@@H](O)[C@@H](OC)C(=O)[C@H](C)C[C@H](C)/C=C/C=C/C=C/1C` [Compound 7o, Rapamycin-42-O-ester-2-amino-1,3-propanediol], the half-inhibitory concentration (IC50) worked out at 150 nM in the assay on A431; 1030 nM in the assay on LS174T; 80.7 nM in the assay on OVCAR-3; 27.4 nM in the assay on SKOV-3; 39.6 nM in the assay with Lncap; 5.84 nM in the assay with SK-N-SH. The results for the 50% inhibitory concentration (IC50) with SKMEL-2, in the assay on D341 and in the assay with MCF-7 were 48.3 nM, 36.2 nM and 2.58 nM, respectively.
On to `CC[C@H](C)[C@H](NC(=O)[C@H](CC(C)C)NC(=O)[C@H](C)NC(=O)O[C@@H]1CC[C@@H](C[C@@H](C)[C@@H]2CC(=O)[C@H](C)/C=C(\C)[C@@H](O)[C@@H](OC)C(=O)[C@H](C)C[C@H](C)/C=C/C=C/C=C(\C)[C@@H](OC)C[C@@H]3CC[C@@H](C)[C@@](O)(O3)C(=O)C(=O)N3CCCC[C@H]3C(=O)O2)C[C@H]1OC)C(=O)N[C@@H](CO)Cc1ccccc1` [Compound 7e, Rapamycin-42-O-ester-(NH-L-Ala-L-Leu-L-Ile-D-Phe-CH2OH)], for which the pIC50 in the assay with A431 is 6.31; in the assay with LS174T it was 6.84; with OVCAR-3, 6.30; with SKOV-3, 7.12; in the assay with Lncap it was 6.72; in the assay on SK-N-SH, 7.05. For the same compound, the negative logarithm of the IC50 (pIC50) is 6.81 with SKMEL-2, 7.08 in the assay on D341 and 7.17 with MCF-7.

For the origin of these results see patent US7659244B2, “Rapamycin peptides conjugates: synthesis and uses thereof” (Quest Pharmatech, Inc., priority 2004, dated 2010).
